Laboratory results as given in ChEMBL document CHEMBL1139343, “Pharmacophore guided discovery of small-molecule human apurinic/apyrimidinic endonuclease 1 inhibitors” (J Med Chem, 2009).

Molecular target: DNA repair nuclease/redox regulator APEX1 (Homo sapiens, UniProt P27695)
Experiment: Inhibition of purified human recombinant APE1 expressed in Escherichia coli M15 cells

DNA repair nuclease/redox regulator APEX1, sequence (P27695 whole entry): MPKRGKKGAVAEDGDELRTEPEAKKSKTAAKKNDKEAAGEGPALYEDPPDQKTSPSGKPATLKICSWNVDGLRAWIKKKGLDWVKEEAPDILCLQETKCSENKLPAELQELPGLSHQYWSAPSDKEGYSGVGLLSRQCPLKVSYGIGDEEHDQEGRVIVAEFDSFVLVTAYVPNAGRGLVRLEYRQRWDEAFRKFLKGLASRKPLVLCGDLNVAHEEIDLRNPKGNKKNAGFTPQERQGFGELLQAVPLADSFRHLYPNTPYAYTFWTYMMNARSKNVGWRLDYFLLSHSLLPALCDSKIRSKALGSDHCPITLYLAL

Compound | IC50 [µM]
COc1ccc(N(CC(=O)NC2CCCC2)C(=O)C2CSC(=O)C2)cc1 (configuration not stated) | > 100
O=C(O)CN1C(=O)/C(=C2/C(=O)N(CC(=O)O)c3ccccc32)SC1=S | 13
COc1ccc(S(=O)(=O)N2CCC(C(=O)O)CC2)cc1C(=O)O | 30
Cc1nc2ccc(C(=O)O)cc2c(O)c1CCC(=O)O | 20
O=C(O)Cn1c(=O)n(CC(=O)O)c2ccccc21 | 16
CCc1cc2c(=O)c(-c3nc4ccccc4s3)c(C)oc2cc1OS(C)(=O)=O | > 100
O=C(O)CN1C(=O)/C(=C2\SC(=S)N(c3ccc(Br)cc3)C2=O)c2ccccc21 | 6
CC(C)c1nnc(NC(=O)C2CCCN2S(=O)(=O)c2ccc(F)cc2)s1 (configuration not stated) | > 100
Cc1oc(CSCC2CCCO2)cc1C(=O)O (configuration not stated) | 16
C(=C\CSc1nnnn1-c1ccccc1)/CSc1nnnn1-c1ccccc1 | > 100
Cc1cc(C)nc(SCc2nnc(SCC(=O)N3CCCCC3)n2-c2ccccc2)n1 | > 100
CC1CCCCC1N(Cc1ccccc1F)S(=O)(=O)c1ccc(S(=O)(=O)N(C)C)cc1 (configuration not stated) | > 100
O=C(O)c1ccc(NS(=O)(=O)c2cccs2)cc1 | > 100
Cc1oc(C(=O)O)cc1CSCc1cc(C(=O)O)oc1C | 40
CCOC(=O)C(=Cc1c[nH]c2ccc(S(=O)(=O)N(C)C)cc12)C(=O)OCC | > 100
Cc1cc(S(=O)(=O)N2CCOCC2)ccc1OCC(=O)N1CCCC1 | > 100
CCS(=O)(=O)Nc1cc2c(C(C)=O)c(C)n(S(=O)(=O)CC)c2cc1C | > 100
COC(=O)COc1ccc(S(=O)(=O)N2CCCCC2)cc1C | > 100
O=C(O)CC(CC(=O)Nc1nnn[nH]1)c1ccccc1 (configuration not stated) | 30
O=C(O)CCS(=O)(=O)c1cccc2c(S(=O)(=O)CCC(=O)O)cccc12 | 35
CC1CCc2c(sc3nc(C4CC4)n4c(SCC(=O)Nc5nccs5)nnc4c23)C1 (configuration not stated) | > 100
O=C(O)CCCN1C(=O)/C(=C2/C(=O)N(CC(=O)O)c3ccccc32)SC1=S | 12
Cn1c(SCC(N)=O)nnc1-c1ccc(NS(C)(=O)=O)cc1 | > 100
CCn1c(SCC(=O)c2cccs2)nnc1-c1ccc(NS(C)(=O)=O)cc1 | > 100

Compound | IC50 [µM]
O=C(Nc1nnc(CCS(=O)(=O)c2ccc3ccccc3c2)s1)c1ccccc1Cl | > 100
O=C(O)CCc1nc2cc(C(=O)O)ccc2[nH]1 | 80
C=CCn1c(Cc2ccccc2)nnc1SCC(=O)Nc1nnc(C)s1 | > 100
O=C(O)c1ccc(S(=O)(=O)c2ccc(Sc3ccc(C(=O)O)c(C(=O)O)c3)cc2)cc1 | 6
C/C(CCc1ccc2c(c1)OCO2)=N\N=C1/NC(=O)CC(C(=O)O)S1 (configuration not stated) | 50
Cc1cc(NC(=O)CCC(=O)O)ccc1NC(=O)c1cccs1 | 100
COc1cc(C=C2C(=O)OC3(CCCC3)OC2=O)cc(I)c1OCc1ccccc1C#N | > 100
CN(C)c1ccc(-c2noc(C3CCN(S(=O)(=O)c4cccc(C(=O)O)c4)CC3)n2)cc1 | 40
CCc1nnc(NS(=O)(=O)c2ccc(NC(=O)CCC(=O)O)cc2)s1 | 80
CCn1c(SCCN2CCCC2)nnc1C1CCCN(S(C)(=O)=O)C1 (configuration not stated) | > 100
CCNC(=O)c1cc(S(=O)(=O)NCc2ccc(C(=O)O)cc2)c(C)s1 | > 100
O=C(O)CCNc1ccc(Br)cc1C(=O)O | 32
CC1(C)C(C(=O)O)N2C(=O)C(NC(=O)C(C(=O)O)c3ccccc3)C2[S+]1[O-] (configuration not stated) | > 100
O=C(CN(Cc1cccs1)S(=O)(=O)c1ccc(S(=O)(=O)NC2CC2)cc1)Nc1ccccc1 | > 100
Cc1c(OS(=O)(=O)c2ccccc2)cccc1OS(=O)(=O)c1ccccc1 | > 100
O=C(O)c1ccc(Oc2ccc(S(=O)(=O)c3ccc(C(=O)O)c(C(=O)O)c3)cc2)cc1 | 10
O=C(Nc1nnc(CCS(=O)(=O)c2ccc3ccccc3c2)s1)c1ccccc1 | > 100
COc1ccc(NS(=O)(=O)c2ccc(NC(=O)c3ccccc3C(=O)O)cc2)nn1 | > 100
CC(C)(C)NS(=O)(=O)c1ccc2oc3ccc(S(=O)(=O)NC(C)(C)C)cc3c2c1 | > 100
O=C(O)CCSc1nnc(SCCC(=O)O)s1 | 17
Cc1cc(C(=O)O)c(CSCc2cc(C(=O)O)c(C)o2)o1 | > 100
O=C(O)c1cccc(S(=O)(=O)N2CCCC(c3nc(O)c4nnn(Cc5ccccc5Cl)c4n3)C2)c1 (configuration not stated) | 87
O=C(O)CN1C(=O)/C(=C2\SC(=S)N(NC(=O)c3ccccc3O)C2=O)c2ccccc21 | 11
CCOc1cc(-n2cnnn2)c(OCC)cc1NC(=O)c1cc2cccc(OC)c2oc1=O | > 100

Compound | IC50 [µM]
Cc1cc(S(=O)(=O)N2CCc3ccccc32)ccc1OCC(=O)NCc1ccccn1 | > 100
CCCCOC(=O)c1ccc(NC(=O)CSc2nnnn2CC)cc1 | > 100
O=C(O)CSC1CCS(=O)(=O)C1 (configuration not stated) | > 100
CCN(c1ccc(C(O)(C(=O)OC)C(F)(F)F)cc1)S(=O)(=O)c1ccc(C)cc1 (configuration not stated) | > 100
Cc1ccc(-c2nnc3c4ccccc4c(C)nn23)cc1S(=O)(=O)N1CCOCC1 | > 100
COc1ccc(/C=C/C(=O)O)cc1S(=O)(=O)NC1CCS(=O)(=O)C1 (configuration not stated) | > 100
Cc1oc(C(=O)O)cc1CSCC(C)C(=O)O (configuration not stated) | 22
Cc1cc(C(=O)O)c(CSCc2cc(C(=O)O)oc2C)o1 | 20
Nc1ncnc2[nH]c(SCCC(=O)O)nc12 | 20
Cc1ccc(-c2noc(CNC(=O)CN(C)S(=O)(=O)c3ccc4ccccc4c3)n2)cc1 | > 100
O=C(CCc1nc(-c2ccc(Cl)cc2)no1)Nc1nnn[nH]1 | > 100
O=S(=O)(c1ccc(OC(F)(F)F)cc1)N1CCCC(c2nc(O)c3nnn(Cc4ccccc4Cl)c3n2)C1 (configuration not stated) | > 100
O=C(O)c1cccc(Nc2nc3ccccc3nc2NS(=O)(=O)c2cccc([N+](=O)[O-])c2)c1 | > 100
O=C(Nc1ccccc1O)c1cccc(S(=O)(=O)N2CCCC2)c1 | > 100
O=S(=O)(Nc1ccc(NS(=O)(=O)c2cccs2)cc1)c1cccs1 | > 100
CN(c1ccc(C(=O)Nc2ccc(F)cc2)cc1)S(=O)(=O)c1ccccc1 | > 100
CCN(Cc1ccccc1)S(=O)(=O)c1ccc(S(=O)(=O)NC2CCC(C)CC2)cc1 (configuration not stated) | > 100
Cn1c(CCNS(=O)(=O)c2ccccc2)nnc1SCc1cccnc1 | > 100
O=C(O)CC1S/C(=N/N=C/c2ccco2)NC1=O (configuration not stated) | > 100
O=S(=O)(NCc1ccccc1)c1ccc(S(=O)(=O)N(Cc2ccc(Cl)cc2)Cc2ccco2)cc1 | > 100
COC(=O)C1C(=O)c2c([nH]c(C(=O)OCC3CCCO3)c2C)CC1C (configuration not stated) | > 100
NC(=O)CSc1nc2ccc(NC(=O)c3ccccc3C(=O)O)cc2s1 | 27

The remaining lines, values ahead:

IC50 [µM] | Compound
60 | Cc1nc(N(CCC(=O)O)CCC(=O)O)sc1C(C)(C)C
15 | Cc1ccc2c(c1)c1nnc(SCc3ccc(CC(=O)O)cc3)nc1n2C(=O)O
> 100 | COc1cc(-c2nnn[nH]2)ccc1OCC(=O)O
9 | O=C(O)CN1C(=O)/C(=C2\SC(=S)NC2=O)c2ccccc21
30 | O=C(O)c1ccccc1C(=O)NCc1ccc(CNC(=O)c2ccccc2C(=O)O)cc1
55 | O=C(O)c1cccc(NC(=O)C2CCCCC2C(=O)O)c1 (configuration not stated)
> 100 | CCC(=O)N(Cc1ccc(S(N)(=O)=O)cc1)C1CC(=O)N(c2ccccc2)C1=O (configuration not stated)
> 100 | CS(=O)(=O)NCc1nnc(SCC(=O)N2CCCCCC2)n1-c1ccc(F)cc1
> 100 | COc1cc(S(=O)(=O)N(Cc2ccc(Br)cc2)Cc2ccco2)ccc1-n1cnnn1
50 | CC1([N+](=O)[O-])CN(CCC(=O)O)CN(CCC(=O)O)C1
> 100 | CCc1nnc(NC(=O)c2cc(S(=O)(=O)N(CC)CC)ccc2Cl)s1
> 100 | O=C(Cn1cc(C(=O)c2ccco2)c2ccccc21)NCc1cccnc1
> 100 | CCNC(=O)c1cc(S(=O)(=O)NCCC(=O)O)c(C)s1
> 100 | CCN1/C(=C2/SC(=S)N(NC(C)=O)C2=O)Sc2ccc(S(=O)(=O)C(F)(F)F)cc21
> 100 | CN(NC(=O)COc1ccccc1)C1=NS(=O)(=O)c2ccccc21
> 100 | CS(=O)(=O)Nc1nc(CC(=O)O)cs1
9 | O=C(O)CCc1ccc(-c2cccs2)n1CC(=O)O
100 | O=C(O)CSc1ccc(C(=O)O)cc1[N+](=O)[O-]
40 | O=C(O)CCC(=O)NC(Cc1ccccc1)C(=O)O (configuration not stated)
40 | O=C(O)CC[S+]([O-])CCC(=O)O
9 | O=C(O)CCc1ccc(-c2ccc(F)cc2)n1CC(=O)O

IC50 [µM] | Compound
> 100 | O=C(O)CCCNc1n[nH]c(=O)[nH]c1=O
> 100 | CN(c1ccc(C(=O)O)cc1)S(=O)(=O)c1cccs1
12 | Cc1ccc(-c2ccc(CCC(=O)O)n2CC(=O)O)cc1
> 100 | CCCS(=O)(=O)N1CCCC(c2nc(-c3ccc(C(C)C)cc3)no2)C1 (configuration not stated)
> 100 | COC(=O)CSc1nnc(-c2ccc(NS(C)(=O)=O)cc2)n1C
> 100 | Cc1cc(S(=O)(=O)N2CCOCC2)ccc1OCC(=O)NCc1ccncc1
> 100 | COc1cc(S(=O)(=O)NC2CCCCC2C)ccc1-n1cnnn1 (configuration not stated)
19 | O=C(O)CSc1cc(-c2ccccc2)nc(SCC(=O)O)n1
> 100 | O=S(=O)(c1ccccc1)N1CCCC(c2nc(-c3ccc(F)cc3)no2)C1 (configuration not stated)
11 | Cc1ccc(OCc2ccoc2C(=O)O)cc1C
> 100 | NC(=O)CSc1nnc(-c2ccc(S(=O)(=O)N3CCCCC3)cc2)n1Cc1ccccc1
80 | O=C(O)c1cccc(S(=O)(=O)N2CCS(=O)(=O)CC2)c1
> 100 | O=P(O)(O)c1ccccc1OCCOc1ccccc1P(=O)(O)O
> 100 | O=S(=O)(O)c1cc(O)c2c(S(=O)(=O)O)cc(S(=O)(=O)O)cc2c1
> 100 | O=C(O)CSc1nnc(-c2ccc(S(=O)(=O)N3CCOCC3)cc2)n1Cc1ccco1
> 100 | O=C(O)c1cccc(NS(=O)(=O)c2cccc3nsnc23)c1
> 100 | Cc1ccc(Cn2nnc3c(O)nc(C4CCCN(S(=O)(=O)c5ccccc5)C4)nc32)cc1 (configuration not stated)
33 | O=C(O)c1cccc(S(=O)(=O)N2CCCC(c3nc(O)c4nnn(Cc5ccc(F)cc5)c4n3)C2)c1 (configuration not stated)
3 | O=C(O)CN1C(=O)/C(=C2\SC(=S)N(C(Cc3ccccc3)C(=O)O)C2=O)c2ccccc21 (configuration not stated)
100 | Cc1cc(S(=O)(=O)N2CCOCC2)ccc1OCC(=O)O
26 | Cc1oc(C)c(C(=O)NCC(=O)O)c1C(=O)NCC(=O)O
